# “Also recorded” adds a separate entry of the source.
# How the values were obtained:
# human NSCLC lines = assay: Cell line growth, 4 days (Cell Titer Glo); type: cell-based; conditions: 1 μM DZNep
# Method: (§1) Cell lines were dissociated, counted and plated at 5000 cells per well in flat bottom opaque tissue culture treated 96 well plates (CytoOne). Edge wells were filled with PBS. The following day, 2× drug diluted in media was added to each well such that the well then contained 100 ul media with 1× drug concentration. After 4 days, Cell Titer Glo™ (Promega) was added and luminescence was read on a BioTec plate reader to determine relative cell number in each well. Data were averaged for triplicate or quadruplicate technical replicates, normalized to the untreated wells and input into GraphPad Prism software to extrapolate IC50.
# as §1, with “concentration at the following doses: etoposide; 0, 0.1, 1, 3, 5, 7, 10, 50, 100, 500 μM, cisplatin; 0, 0.1, 1, 5, 10, 30, 70, 100, 500 μM, or doxorubicin; 0, 0.01, 0.1, 0.5, 1, 3, 5, 7, 10, 50 μM.” for “concentration.”, “CELLTITER-GLO™” for “Cell Titer Glo™”, “replicates and” for “replicates,”, “wells. […]” for “wells and input into GraphPad Prism software to extrapolate IC50.”
# H460 = assay: 7AAD cell cycle flow cytometry, stably transduced lines; type: cell-based, human; conditions: etoposide treated H460 shBrg1 and EGFR over-expression
# Method: (§2) Cell lines were plated at 1.5×10^6 cells per 10 cm plate and treated with drug for 4 days. Cells were then dissociated, fixed with 100% ice cold Ethanol for at least 2 hours, incubated for 30 minutes with 1 mg/mL RNase A and resuspended in 20 μg/mL 7AAD. 30,000 events were collected on the BD Facscalibur™ and analyzed with the ModFit LT™ software. In cases where etoposide treated cells had such abnormal ploidy that ModFit LT™ was unable to correctly model the cell cycle, the data was analyzed manually on FlowJo™ software by setting the gates on the etoposide sample and copying them to the etoposide+DZNep and etoposide shEZH2 samples.
# (§3) For 7AAD-cell cycle analysis, cell lines were plated at 1.5×10^6 cells per 10 cm plate and treated with drug for 4 days. Cells were then dissociated, fixed with 100% ice cold Ethanol for at least 2 hours, incubated for 30 minutes with 1 mg/mL DNase-free RNase A (Thermo) and resuspended in 20 μg/mL 7-Aminoactinomycin D (7AAD; Invitrogen). 30,000 events were collected on the BD FORTESSA™ and analyzed with the MODFIT LT™ software. Results from three to four independent biological replicate experiments were averaged for each cell line.
# HCC15 = assay: as above; type: cell-based, human
# Method: as §2, §3
# [1] = tested on: p57, p21, p27, Brg1 and EGFR expression; assay: Quantitative RT-PCR in treated cell lines; type: cell-based, human; conditions: Sw1573, Calu6, H23, H460 and PC9; 1 μM DZNep, 4 days
# Method: RNA from treated cell lines was extracted from using Trizol. Equal amounts of RNA were incubated with DNAse I before cDNA was made using the SuperScript III™ kit (Invitrogen). Relative gene expression was assayed with Sybr green on the StepOnePlus™ Real-Time PCR System (Applied Biosystems). Relative expression was calculated by Gene of Interest (Ctreference-Ctexprimental)-CYPA(Ctreference-Ctexperimental) and graphed on the log 2 scale. For all experiments, the reference sample was a matched untreated or control transduced cell line. Primer sequences:
# RNA from treated cell lines was extracted using Absolutely RNA™ kits (Agilent) and cDNA was made using the SuperScript III™ kit (Invitrogen). Relative gene expression was assayed with Sybr green on the StepOnePlus™ Real-Time PCR System (Applied Biosystems). Relative expression was calculated by Gene of Interest(Ctreference-Ctexperimental)-CYPA(Ctreference-Cteexperimental) and graphed on the log 2 scale. For all experiments, the reference sample was a matched untreated or control transduced cell line.
smiles,measurement,setting,value
"Nc1nccc2c1ncn2[C@@H]1C=C(CO)[C@@H](O)[C@H]1O [DZNep, 3-Deazaneplanocin A]",average reduction in growth of the cell lines,human NSCLC lines; 4-day time point,20%
same,cell lines showing a significant reduction in growth,"human NSCLC lines; 4-day time-point, panel of 26 lines",11 of 26
same,S phase change in response to DZNep,H460,enriched for S phase
same,S phase change in response to DZNep,HCC15; etoposide treated HCC15 Brg1 over-expression,dramatically smaller accumulation in S phase; also recorded: did not accumulate in S phase
same,S phase change in response to DZNep,HCC15; etoposide treated HCC15 shEGFR,decrease in S phase; also recorded: no additional increase in S phase
same,BRG1 transcript,[1],reproducibly increased

# Reference: US9895390B2, “Methods and assays for combination treatment of cancer” (CHILDREN'S MEDICAL CENTER CORPORATION, priority 2012, dated 2018)
